Earlier results on 1 compound are cited in publication PMC10535219, “Discovery and Potential Utility of a Novel Non-Invasive Ocular Delivery Platform” (Pharmaceutics, 2023).

In general, IC50 refers to the concentration needed to halve the response being measured.

One data set deals with COX-2. Set-up: method as in PMID 22765297, PMID 24005906. To be noted: COX-2 signaling cascade; cited from earlier work.
The test system of the next data set is IL-1β production. Set-up: method as in PMID 29352206. As to conditions: human THP-1 macrophage cell line; read-out: IC50 for reducing IL-1β production; cited from earlier work.
On the set-up of data set [1]: method as in PMID 35250585. As to conditions: once-daily intragastric administration; mice; cited from earlier work.
The next data set deals with photoreceptors. Set-up: method as in PMID 23723389. To be noted: rat retinal neuronal cultures; by activating RXRs; cited from earlier work.

On to `CC/C=C\C/C=C\C/C=C\C/C=C\C/C=C\C/C=C\CCC(=O)O` [JV-MD2, cis-4,7,10,13,16,19-docosahexaenoic acid], for which the results for the IC50 with COX-2 and with IL-1β production were 18 µM and 4.6 µM, respectively. Moreover, the “laser-induced CNV formation” value in data set [1] was “effectively inhibited laser-induced CNV formation”. For the same compound, the “protective effect on photoreceptors” value in the data set on photoreceptors is “induced a protective effect”.
